In patent US5028605A, “8-alkylaminoimidazo(1,2-a)pyrazines and derivatives, their preparation and their application in therapy” (l'Universite de Montpellier I, priority 1986, dated 1991):

Columns and labels:
duodenum = test: Antispasmodic activity: barium chloride-induced contraction of isolated rat duodenum (Magnus); details: for ED50 Theo/ED50 product (antispasmodic activity): barium chloride 10^-4 M, isolated rat duodenum, 37° C., mean of 5 to 6 determinations
Experimental: Fragments of duodenum are removed from male rats (200 g), fasted for 24 hours and killed by decapitation, and are mounted, after being washed, in a thermostatted (37° C.) isolated organ cell and maintained in survival in Tyrode's solution according to Magnus's classical technique.
The spasmogenic agent used is barium chloride (10^-4 M).
In the first instance, the spasmogenic agent is added to the nutrient bath and, as soon as the contraction of the organ reaches its maximum, the relaxant agent is added to the medium. Working in relation to a fixed concentration of barium chloride with variable concentrations of relaxant, the ED50 of the latter, capable of reducing the induced contraction by 50%, is determined.
The results expressed in Table IV below show the ratio ED50 Theo/ED50 product, established on the basis of the mean of the results of 5 to 6 determinations per product (ED50theophylline=8×10^-4 M).

uterine horns = test: Uterine relaxant activity: spontaneous contractions of isolated rat uterine horn fragments; details: for ED50 Theo/ED50 product (uterine relaxant activity): isolated rat uterine horn, spontaneous contractions, mean of 5 to 10 determinations
Experimental: Female rats (150-180 g) are killed by decapitation 24 hours after the intraperitoneal administration of stilbestrol (0.1 mg/kg). The uterine horns are removed and fragments mounted in a thermostatted (37° C.) isolated organ cell and maintained in survival in oxygenated De Jalon's solution of composition (mM): NaCl (153.8); KCl (5.6); CaCl2 (2.16); NaHCO3 (1.8); dextrose (5.5). One end of the uterine fragment is maintained fixed, while the other is attached to a recording myograph under a tension of the order of 0.5 g. The spontaneous uterine contractions are recorded on a kymograph. The organ is left at rest for 30 minutes and washed three times. The test products are introduced directly into the bath after being dissolved in De Jalon's solution, and the activity measured (ED50) corresponds to the dose capable of reducing the magnitude of the spontaneous contractions by 50%.
The results expressed in Table V below show the ratio ED50 Theo/ED50 product, established on the basis of the mean of the results of 5 to 10 determinations per product. (ED50 theophylline=0.9×10^-3 M)

[1] = tested on: histamine-induced bronchoconstriction, guinea pigs; test: Antibronchospastic activity: histamine-induced bronchospasm in anesthetized guinea pigs; assay type: in vivo, guinea pig; details: for ED50 Theo/ED50 product (bronchospasm induced in guinea pigs): intravenous, 30 seconds before histamine, mean of 5 to 8 determinations
Experimental: Guinea pigs of both sexes weighing between 400 and 600 g are anesthetized with ethyl carbamate ([…] i.p.). After tracheotomy, the animal is placed under artificial respiration at a constant flowrate (Palmer pump 1 m1/100 g×60/min). A take-off at the tracheal cannula enables the volume of air to be gaged at each inhalation by means of a Marey drum. Bronchospasm is induced by intraveneous (jugular) administration of histamine. For each animal, the dose of histamine (8 to 12 μg/kg) inducing an increase in the recording trace equal to double its initial value is determined. The dose adopted should provide three identical responses at intervals of 10 minutes.
The test product is administered intraveneously and then, 30 seconds later, histamine is administered again.

guinea pig trachea = test: Isolated guinea pig trachea: anti-contractional activity against carbachol; details: for EC50 Theo/EC50 product (anti-contractional activity, trachea): carbachol 10^-4 M, isolated guinea pig trachea, mean of 5 to 6 determinations
Experimental: Guinea pigs of both sexes weighing on average 400 to 600 g are sacrificed, and the tracheas are removed and placed at 37° C. in an oxygenated environment (95% O2 -5% CO2) in Krebs fluid of the following composition (mM): NaCl (116), MgSO4 (1.2), KCl (3.7), CaCl2 (2.6), KH2 PO4 (2.2), NaHCO3 (24.9), glucose (10). The tracheal segments are then mounted horizontally between two hooks, one of which is fixed to the base of the isolated organ cell and the other is attached to a myograph under a tension of 0.5 g. The organ is left at rest for one hour and is subjected to four washes. The contraction-inducing reagent (carbachol) is added at a concentration (10^-4 M) greater than the concentration giving the maximum effect. After stabilization of the contractional effect, gradually increasing accumulative amounts of the test products are added to the cell. The bronchodilatory effect is measured as the percentage inhibition of the maximal contraction and EC50 represents the concentration inhibiting this concentration by 50%.

left atrium = test: Cardiac activity: inotropic function, isolated electrically stimulated left atrium; design: species or system guinea pig; details: concentration producing increase in magnitude of 0.5 g
Excerpt: (§1) Guinea pigs of both sexes weighing between 300 and 500 g are killed by decapitation. The hearts are rapidly removed and placed in an oxygenated environment (95% O2 -5% CO2) in Chenoweth-Koelle's solution of the following composition (mM): NaCl (120), KCl (5.63), CaCl2 (2.0), dextrose (9.7), MgCl2 (2.0), NaHCO3 (26.0). The right and left atria are then separated from the heart and mounted in an isolated organ cell. The right atrium beats spontaneously and the left atrium is electrically stimulated. The organs under a tension of 1 g are left at rest for two hours and washed every fifteen minutes.
(§2) The products are added directly to the nutrient bath. The right atrium is used for measuring the modifications of rate (chronotropic function) whereas the left atrium indicates the modifications brought about in the contractile force (inotropic function).
For the inotropic function, the concentration capable of producing an increase in magnitude of 0.5 g with respect to the basic contraction is measured.

right atrium = test: Cardiac activity: chronotropic function, isolated spontaneously beating right atrium; design: species or system guinea pig; details: concentration producing 20% increase in rate
Excerpt: as §1, §2
For the chronotropic function, the concentration capable of producing a 20% increase in the basic value of the rate is determined.

mice = test: Motor activity: spontaneous activity in mice (neurosedative effect); assay type: in vivo, mouse; details: male mice, 50 minutes
Experimental: The measurement of the neurosedative effect is based on the test of activity measurements in mice. […] Five minutes after the administration, the animals are placed in activity-measuring cages, which record their movements digitally by means of the interruption of beams of light. The results are recorded in Table IX and expressed as the percentage variation (increase or decrease ) in activity compared with the controls during a period of 50 minutes following the administration.

## CNc1nccn2c(Br)cnc12 [Compound 6, 3-Bromo-8-methylaminoimidazo[1,2-a]pyrazine]
duodenum
  ED50 Theo/ED50 product (antispasmodic activity): 32
Uterine horns
  ED50 Theo/ED50 product (uterine relaxant activity): 9
[1]
  ED50 Theo/ED50 product (bronchospasm induced in guinea pigs): 2
Guinea pig trachea
  EC50 Theo/EC50 product (anti-contractional activity, trachea): 12.5
Left atrium
  ED Theo/ED Product, inotropic function: 5
Right atrium
  ED Theo/ED Product, chronotropic function: 6
mice; 55 μmol/kg intraperitoneally
  spontaneous activity - % variation compared with the controls, decrease (.dwnarw.): 25%
mice; 166 μmol/kg intraperitoneally
  spontaneous activity - % variation compared with the controls, decrease (.dwnarw.): 57%

## Nc1nc(Br)cn2ccnc12 [Compound 8, 8-amino-6-bromoimidazo[1,2-a]pyrazine]
duodenum
  ED50 Theo/ED50 product (antispasmodic activity): 32
Uterine horns
  ED50 Theo/ED50 product (uterine relaxant activity): 3
[1]
  ED50 Theo/ED50 product (bronchospasm induced in guinea pigs): 4
Guinea pig trachea
  EC50 Theo/EC50 product (anti-contractional activity, trachea): 11.3
Left atrium
  ED Theo/ED Product, inotropic function: 10
Right atrium
  ED Theo/ED Product, chronotropic function: 2
mice; 55 μmol/kg intraperitoneally
  spontaneous activity - % variation compared with the controls, decrease (.dwnarw.): 53%
mice; 166 μmol/kg intraperitoneally
  spontaneous activity - % variation compared with the controls, decrease (.dwnarw.): 83%

## CNc1nc(Br)cn2ccnc12 [Compound 9, 6-bromo-8-methylaminoimidazo[1,2-a]pyrazine]
duodenum
  ED50 Theo/ED50 product (antispasmodic activity): 20
Uterine horns
  ED50 Theo/ED50 product (uterine relaxant activity): 5.6
[1]
  ED50 Theo/ED50 product (bronchospasm induced in guinea pigs): 5.4
Guinea pig trachea
  EC50 Theo/EC50 product (anti-contractional activity, trachea): 8.3
Left atrium
  ED Theo/ED Product, inotropic function: 50
Right atrium
  ED Theo/ED Product, chronotropic function: 25
mice; 55 μmol/kg intraperitoneally
  spontaneous activity - % variation compared with the controls, decrease (.dwnarw.): 74%
mice; 166 μmol/kg intraperitoneally
  spontaneous activity - % variation compared with the controls, decrease (.dwnarw.): 83%

## CCNc1nc(Br)cn2ccnc12 [Compound 10, 6-bromo-8-ethylaminoimidazo[1,2-a]pyrazine]
duodenum
  ED50 Theo/ED50 product (antispasmodic activity): 40
Uterine horns
  ED50 Theo/ED50 product (uterine relaxant activity): 7.2
[1]
  ED50 Theo/ED50 product (bronchospasm induced in guinea pigs): 2
Guinea pig trachea
  EC50 Theo/EC50 product (anti-contractional activity, trachea): 5
Left atrium
  ED Theo/ED Product, inotropic function: 4
Right atrium
  ED Theo/ED Product, chronotropic function: 15
mice; 55 μmol/kg intraperitoneally
  spontaneous activity - % variation compared with the controls, decrease (.dwnarw.): 13%
mice; 166 μmol/kg intraperitoneally
  spontaneous activity - % variation compared with the controls, decrease (.dwnarw.): 73%

## CCOC(=O)c1cn2ccnc(N)c2n1 [Compound 17, ethyl 8-aminoimidazo[1,2-a]pyrazine-2-carboxylate]
duodenum
  ED50 Theo/ED50 product (antispasmodic activity): 13
Uterine horns
  ED50 Theo/ED50 product (uterine relaxant activity): 2.6
[1]
  ED50 Theo/ED50 product (bronchospasm induced in guinea pigs): 1.1
Left atrium
  ED Theo/ED Product, inotropic function: < 1
Right atrium
  ED Theo/ED Product, chronotropic function: < 1
mice; 55 μmol/kg intraperitoneally
  spontaneous activity - % variation compared with the controls, increase (.uparw.): 28%
mice; 166 μmol/kg intraperitoneally
  spontaneous activity - % variation compared with the controls, decrease (.dwnarw.): 17%

## Cn1c(=O)c2[nH]cnc2n(C)c1=O [theophylline, reference compound]
duodenum; Rattus norvegicus, reduces barium chloride-induced contraction by 50%, read-out: ED50 theophylline (antispasmodic)
  EC50: 800 µM
Uterine horns; Rattus norvegicus, reduces magnitude of spontaneous contractions by 50%, read-out: ED50 theophylline (uterine relaxant)
  EC50: 900 µM
[1]; Cavia porcellus, iv, read-out: ED50 Theo (bronchospasm induced in guinea pigs)
  ED50: 43 µmol/kg
Guinea pig trachea; Cavia porcellus, 50% inhibition of maximal carbachol contraction, read-out: EC50 Theo (anti-contractional activity, trachea)
  EC50: 1 mM
mice; 55 μmol/kg intraperitoneally
  spontaneous activity - % variation compared with the controls, increase (.uparw.): 130%
mice; 166 μmol/kg intraperitoneally
  spontaneous activity - % variation compared with the controls, increase (.uparw.): 170%
